From patent US4289876A, “Antisecretory agents” (Bristol-Myers Company, priority 1980, dated 1981)

Key:
[1] = target: T1, histamine H2-receptor (Cavia porcellus, UniProt P47747); assay: Histamine H2-receptor antagonism, isolated guinea pig right atria assay (displacement of histamine concentration-response curve for atrial rate)
T1 construct: The spontaneously beating right atrium was dissected free from other tissues; from tissue; host or cells: isolated spontaneously beating right atrium of male Hartley guinea pigs
T1 sequence (P47747 whole entry): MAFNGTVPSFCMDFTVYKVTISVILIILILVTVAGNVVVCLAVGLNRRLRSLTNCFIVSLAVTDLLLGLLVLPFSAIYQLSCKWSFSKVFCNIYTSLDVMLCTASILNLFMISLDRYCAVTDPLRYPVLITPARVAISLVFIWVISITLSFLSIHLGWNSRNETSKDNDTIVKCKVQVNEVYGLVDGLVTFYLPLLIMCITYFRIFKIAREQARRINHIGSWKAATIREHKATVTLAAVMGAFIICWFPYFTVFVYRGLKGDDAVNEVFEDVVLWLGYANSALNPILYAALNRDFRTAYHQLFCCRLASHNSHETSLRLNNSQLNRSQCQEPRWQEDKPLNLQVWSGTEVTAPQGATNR
Description: Subsequent investigations by Hughes and Coret, Proc. Soc. […] Black et al., Agents and Actions, 3, 133 (1973) and Brimblecombe et al., Fed. […] The present comparative studies were carried out using a modification of the procedure reported by Reinhardt et al., Agents and Actions, 4, 217 (1974).
Male Hartley strain guinea pigs (350-450 gm.) were sacrificed by a blow on the head. The heart was excised and placed in a Petri dish of oxygenated (95% O2, 5% CO2) modified Krebs solution (g./liter: NaCl 6.6, KCl 0.35, MgSO4.7 H2 O 0.295, KH2 PO4 0.162, CaCl2 0.238, NaHCO3 2.1 and dextrose 2.09). The spontaneously beating right atrium was dissected free from other tissues and a silk thread (4-0) attached to each end. The atrium was suspended in a 20 ml. muscle chamber containing oxygenated modified Krebs solution maintained at 32° C. Atrial contractions were recorded isometrically be means of a Grass FT 0.03 force displacement transducer and recordings of contractile force and rate were made with Beckman RP Dynograph.
A resting tension of 1 g. was applied to the atrium and it was allowed to equilibrate for 1 hour.
Concentration-response curve displacement factors were calculated as follows: [formula] […] [formula]

[2] = test system: H2-receptor; conditions: cited from earlier work
[3] = test system: peptic ulcer disease; conditions: clinical evaluation, Gray et al., Lancet 1977; cited from earlier work
[4] = cited from earlier work
[5] = in vivo; cited from earlier work
[6] = test system: histamine H2-receptors; conditions: Black et al., Nature 1972; cited from earlier work
[7] = histamine ED50 after 30 minute incubation with test compound at 3 × 10^-5 M

## NCCc1c[nH]cn1 [Histamine]
[1]; histamine control before BL-6075, N=3
  Histamine ED50 With 95% Confidence Limits: 0.39 µg/mL
[1]; histamine, cumulative addition
  concentration of maximal response (atrial rate): 30 µM

## C#CCNC(=NCCSCc1ncccc1Cl)NC#N [BL-6083, N-Cyano-N'-(2-propyn-1-yl)-N"-{2-[(3-chloro-2-pyridyl)methylthio]ethyl}guanidine]
[1]; based on displacement factors
  potency/activity relative to cimetidine as a histamine H2-receptor antagonist: 8.19 times
[1]; [7]
  Histamine ED50 With 95% Confidence Limits: 57.92 µg/mL

## C#CCNC(=C[N+](=O)[O-])NCCSCc1ncccc1Cl [BL-6075, 1-Nitro-2-(2-propynylamino)-2-{2-[(3-chloro-2-pyridyl)methylthio]ethylamino}ethylene]
[1]; Table 1, ratio of displacement factors, 3 × 10^-5 M
  Activity Ratio Relative to Cimetidine: 2.09
[1]; [7]
  Histamine ED50 With 95% Confidence Limits: 20.97 µg/mL

## CN/C(=N/CCSCc1nc[nH]c1C)NC#N [Cimetidine]
[1]; [7]
  Histamine ED50 With 95% Confidence Limits: 4.80 µg/mL
[1]; test compound 3 × 10^-5 M, rightward displacement of histamine curve
  Concentration-Response Curve Displacement Factor: 25.26
[2]
  potency/effectiveness as H2 antagonist vs. earlier compound: as effective an H2 antagonist as metiamide
[3]
  efficacy in treatment of peptic ulcer disease: effective therapeutic agent in the treatment of peptic ulcer disease

## C/N=C(\S)NCCSCc1[nH]cnc1C [Metiamide]
[2]
  potency/effectiveness as H2 antagonist vs. earlier compound: more potent than burimamide
[4]
  oral activity in man: orally active in man

## CNC(=S)NCCCCc1cnc[nH]1 [Burimamide]
[5]
  oral absorption: oral absorption is poor
[6]
  mode of antagonism at histamine H2-receptors: competitive antagonist
